# Measured values: a melting point compilation (Tetko et al.; mined from patent text by program, amines drawn as free bases though some values may be those of a salt)
row,SMILES,melting point [°C]
1,C=C(C)Cc1c(C)c(OC(C)=O)c(C)c(C)c1O,109 to 110
2,C[C@@H]1CCN(C(=O)CC#N)C[C@@H]1N(C)c1ncnc2sccc12,74.3
3,Cc1c(C)c2c(c(C)c1N)CC(C)(CN1CCC(C(=O)NCC(c3ccccc3)c3ccccc3)CC1)O2 (stereo unspecified),168 to 170
4,CCn1ncc(OCc2ccc(C3CCCCC3)cc2)c(Cl)c1=O,168 to 170
5,CCOC(=O)C1=C(COCC#CC(N)=O)NC(C)=C(C(=O)OC)C1c1cccc(Cl)c1Cl (stereo unspecified),147 to 148
6,CC(=O)N(Cc1ccc(C[C@@H](C(=O)O)n2cccc2)cc1)Cc1nc(-c2ccccc2)oc1C,97 to 100
7,CCOC(=O)C(C(=O)OCC)N(Cc1ccc(OC)cc1OC)C(=O)CCl,83 to 84
8,CCCc1cnc2c(NC(=O)c3c(Cl)cccc3Cl)cccc2c1-n1ccnc1,160 to 161
9,COC1CCCC(C(=O)Nc2ccc(-n3nc(C(F)(F)F)cc3C(F)(F)F)cc2)C1 (stereo unspecified),145 to 147
10,CCOC(=O)C=Cc1ccc(Cl)cc1N(CC(=O)c1ccc(Cl)cc1)S(=O)(=O)c1ccc(C)cc1,162 to 165
11,CCCc1c(O)c(C(C)=O)cc2c(C)cc(C(=O)OCC)nc12,150 to 151
12,COC(=O)c1ccc(Cc2ccc(NC(C)=O)cc2)cn1,175 to 177
13,CCCCCC1(c2ccccc2)CC=CC(=O)O1 (stereo unspecified),123 to 124
14,O=[N+]([O-])c1ccc2c(ccn2Cc2ccncc2)c1,134 to 136
15,CCCN1N=C2C(=Cc3ccc(OC)cc3)CSCC2C1c1ccc(OC)cc1 (stereo unspecified),150 to 152
16,Cc1cc(C)c([N+](=O)[O-])c(C)c1-c1n[nH]c2c(C#N)c(C(C)(C)C)nn12,265 to 266
17,COc1ccc(C2CCN(c3c(C)c(C)c4c(c3C)C(c3ccccc3)C(C)(C)O4)CC2)cc1OC (stereo unspecified),118 to 120
18,O=C(O)C1CN(S(=O)(=O)c2ccc3cc(Br)ccc3c2)CCN1C(=O)C1CCN(c2ccncc2)CC1 (stereo unspecified),216 to 222
19,CCN(CC)C(=O)CCCCCN1CCC(NC(=O)c2cnc3c(OC)cccc3c2Nc2ccc(C(=O)NC3CCN(Cc4ccccc4)CC3)cc2)CC1,115 to 120
20,CN1CCN(c2ccc(Nc3ncc4c(n3)S/C(=C/c3ccc(F)cc3)C(=O)N4)cc2)CC1,172 to 175
21,CCOCCOc1ccc(-c2nc(-c3ccc(OC)cc3)nc(-c3ccc(OCCOCC)cc3O)n2)c(O)c1,155 to 158
22,CCCOc1ccnc2c1c(C(C)=O)cn2S(=O)(=O)c1ccccc1,119 to 121
23,CN1C(=N)N(C)C(=Cc2c[nH]c3ccccc23)C1=O,232 to 233
24,CCOC(=O)C(O)c1ccc(-n2cccc2)cc1 (stereo unspecified),126 to 128

row,SMILES,melting point [°C]
1,CCCC1CC(=O)c2c(NC(=O)C(=O)OCC)ccc(C)c21 (stereo unspecified),84 to 86
2,CCN(CC)CCOc1ccc(Nc2ncc3c(n2)N(C)C(=O)N(c2ccccc2Cl)C3)cc1,150 to 151
3,O=C1NC(=O)C(Nc2ccc(CCNC[C@H](O)COc3ccc(Oc4ccccc4)cc3)cc2)S1 (stereo partly specified),72 to 74
4,Oc1ccc2c(c1)OCC(c1ccccc1)C2c1ccc(OCCN2CCCCC2)cc1 (stereo unspecified),168 to 170
5,CN(Cc1ccccc1S(=O)c1nc2ccccc2[nH]1)c1ccccc1 (stereo unspecified),164 to 166
6,CCOC(=O)C1(C(=O)OCC)CCNC(=O)CC1,80 to 81
7,CCc1cccc(C)c1NCc1nccc2c1nc(C)n2C,141 to 142
8,Cc1cc(C(=O)NC(=N)N)no1,192
9,COc1cc(C)nc(NC(=O)NS(=O)(=O)c2cccc3c2S(=O)(=O)C(C)C3)n1 (stereo unspecified),224 to 226
10,N=C(NO)c1cccc(COC(=O)c2cc3ccccc3n2Cc2cccc(C(=N)NO)c2)c1,114 to 116
11,CC(C#N)(c1ccc(Cl)c(C(F)(F)F)c1)c1ccc(N)cc1Cl (stereo unspecified),180
12,CC(C)(C)c1cc(-c2cc(C(C)(C)C)cc(-n3nc4ccccc4n3)c2O)c(O)c(-n2nc3ccccc3n2)c1,234
13,CCOc1nc2ccccc2nc1NC(=O)N1CCN(c2cc(Cl)cc(Cl)c2)CC1,157 to 159
14,Oc1ccccc1CNNCc1ccccc1O,315 to 316
15,CN(C)c1noc(-c2ncn3c2COc2cc(F)ccc2-3)n1,239 to 240
16,CN1c2c(Cl)cc(CC(=O)O)cc2CCC1c1ccccc1 (stereo unspecified),111 to 112
17,COC(=O)c1ccc(OC)c(NC(=N)c2ccc(F)cc2Cl)c1,120
18,CC(C)c1ccc(OCCCN2CCN(c3ccc(Cl)nn3)CC2)cc1,125 to 127
19,CS(=O)(=O)c1ccc(-c2oc(CO)nc2-c2ccc(F)cc2)cc1,156 to 157
20,CC(C)c1cc(S(=O)(=O)Cl)c(C(C)C)cc1Br,80.5 to 83
21,O=C(Nc1nnn[nH]1)c1csc(-c2ccco2)n1,275 to 277
22,Nc1nc(-c2cc(Cl)nc(Cl)c2)cs1,239 to 247
23,O=C(C=Cc1ccc2c(c1)OCO2)c1cccc(OCCCCBr)c1,97 to 98
24,COc1cc(N)c(Cl)cc1C(=O)NCCC1CN(Cc2ccccc2)CCO1 (stereo unspecified),68 to 72

row,SMILES,melting point [°C]
1,CCOC(=O)OC1=C(c2c(C)cc(C)cc2C)C(=O)NC1C1CCN(OC)CC1 (stereo unspecified),154 to 155
2,CC(=O)c1cc(C)ccc1OCCCN1CCC(c2noc3cc(F)ccc23)CC1,92 to 93
3,O=[N+]([O-])c1ccc2c(c1)OC(CC(F)(F)F)(C(F)(F)F)O2 (stereo unspecified),87 to 88
4,O=C(Nc1nnn(CC2CC2)n1)C(c1ccccc1)c1ccccc1,147 to 148
5,Cc1cccc2c(=O)[nH]c(CCN3CC[C@H](O)C3)cc12,176 to 178
6,CC1(C)COC(CCc2ccc(NC=NO)cc2)OC1,159 to 160
7,CC(C)(O)c1ccc(C#N)cc1,45 to 47
8,O=C(Nc1ccc([N+](=O)[O-])cc1)C(=O)N1CCC(Cc2ccc(F)cc2)CC1,157 to 159
9,COc1ccc(NC(=O)c2nnn(Cc3ccc(F)cc3)c2C)cc1OC,120
10,O=P(O)(O)Cc1cc(C(F)(F)F)cc(C(F)(F)F)c1,206 to 208
11,O=Cc1cc(O)c(O)cc1[N+](=O)[O-],201
12,O=C(O)C1=Cc2ccc(Cl)cc2SC1C(F)(F)F (stereo unspecified),226 to 227
13,Cc1nc2ccc(Cl)cc2nc1Cl,194 to 196
14,COc1ccc(C2=NN(c3ccccc3)C(c3ccc(NC(=S)Nc4ccccc4)cc3)C2)cc1 (stereo unspecified),153 to 156
15,Cc1ccccc1OCC(O)CN (stereo unspecified),64
16,COC(=O)c1cncn1C1c2ccccc2C(OC)(OC)C1(C)C (stereo unspecified),140 to 141
17,CC1CN(c2cc3c(c(NCc4ccccc4)c2F)c(=O)c(C(=O)O)cn3C2CC2)CCN1 (stereo unspecified),129 to 130
18,CCC(=O)C1c2cccc(O)c2C(=O)c2c(OC(=O)C(C)C)cccc21 (stereo unspecified),111
19,COC(C1=CN(C)CS1)c1ccccc1COc1cc(Cl)ccc1Cl (stereo unspecified),78.5 to 79.5
20,CNC(=O)[C@H](Cc1ccc2ccccc2c1)NC(=O)C(CCOc1c(F)c(F)c(F)c(F)c1F)CC(=O)O (stereo partly specified),68 to 69
21,Cc1c(C=O)ncn1Cc1ccccc1,107 to 110
22,O=CNNc1ccccc1NC(=S)Nc1ccccc1,224 to 226
23,CNC(=O)N(Cc1ccc(C)c(C)c1)NC(=O)OC(C)(C)C,99.7 to 105
